Patent US9206177B2, “Substituted dimeric quinazoline-2,4-diones as FGF receptor agonists” (Sanofi, priority 2011, dated 2015)

System: human venous endothelial cells (HUVECs)
Test: In vitro angiogenesis model (pseudotubule length of HUVECs on matrigel/collagen)
Assay type: cell-based
Parameters: % activation with respect to FGF2 (in vitro): concentration or dose not given beside the values
Conditions: for EC50: Homo sapiens, HUVEC; for EC50 / % activation with respect to FGF2 (in vitro): in vitro; for % activation with respect to FGF2 (in vitro): relative to FGF2
Protocol: In Vitro Angiogenesis Model
The products are tested for their ability to cause rearrangement of human venous endothelial cells (HUVECs) on matrigel (Becton dickinson 356230) diluted in collagen (rat tail collagen, type I: Becton dickinson 354236). After 24 hours, the cells are observed under a microscope with a ×4 objective and the length of the pseudotubules is measured by means of an image analyser (BIOCOM-logiciel Visiolab 2000).

Structure (SMILES)	EC50	% activation with respect to FGF2 (in vitro)	active on the in vitro angiogenesis model (at a concentration of 10 nM)
Cc1c(-c2ccc(OCCCCCN(CCCCCOc3ccc(-c4c(C)c(C(=O)c5ccc6c(=O)n(CC(=O)O)c(=O)[nH]c6c5)n5ccccc45)cc3)CCN3CCN(C)CC3)cc2)c2ccccn2c1C(=O)c1ccc2c(=O)n(CC(=O)O)c(=O)[nH]c2c1 [Compound 11, 2,2′-({[2-(4-methylpiperazin-1-yl)ethyl]imino}bis[pentane-5,1-diyloxybenzene-4,1-diyl(2-methylindolizine-1,3-diyl)carbonyl(2,4-dioxo-1,4-dihydroquinazoline-7,3(2H)-diyl)])diacetic acid]	< 1 nM	63%	
Cc1c(-c2ccc(OCCCCCN(CCCCCOc3ccc(-c4c(C)c(C(=O)c5ccc6c(=O)n(CC(=O)O)c(=O)[nH]c6c5)n5ccccc45)cc3)Cc3ccncc3)cc2)c2ccccn2c1C(=O)c1ccc2c(=O)n(CC(=O)O)c(=O)[nH]c2c1 [Compound 12, 2,2′-{[(pyridin-4-ylmethyl)imino]bis[pentane-5,1-diyloxybenzene-4,1-diyl(2-methylindolizine-1,3-diyl)carbonyl(2,4-dioxo-1,4-dihydroquinazoline-7,3(2H)-diyl)]}diacetic acid]	< 1 nM	42%	
Cc1c(-c2ccc(OCCCCCN(CCCCCOc3ccc(-c4c(C)c(C(=O)c5ccc6c(=O)n(CC(=O)O)c(=O)[nH]c6c5)n5ccccc45)cc3)Cc3ccc(N(C)C)cc3)cc2)c2ccccn2c1C(=O)c1ccc2c(=O)n(CC(=O)O)c(=O)[nH]c2c1 [Compound 13, 2,2′-({[4-(dimethylamino)benzyl]imino}bis[pentane-5,1-diyloxybenzene-4,1-diyl(2-methylindolizine-1,3-diyl)carbonyl(2,4-dioxo-1,4-dihydroquinazoline-7,3(2H)-diyl)])diacetic acid]	< 100 nM	23%	
CCN(CC)CCN(CCCCCOc1ccc(-c2c(C)c(C(=O)c3ccc4c(=O)n(CC(=O)O)c(=O)[nH]c4c3)n3ccccc23)cc1)CCCCCOc1ccc(-c2c(C)c(C(=O)c3ccc4c(=O)n(CC(=O)O)c(=O)[nH]c4c3)n3ccccc23)cc1 [Compound 14, 2,2′-({[2-(diethylamino)ethyl]imino}bis[pentane-5,1-diyloxybenzene-4,1-diyl(2-methylindolizine-1,3-diyl)carbonyl(2,4-dioxo-1,4-dihydroquinazoline-7,3(2H)-diyl)])diacetic acid]	< 1 nM	62%	
Cc1c(-c2ccc(OCCCN3CCN(CCCOc4ccc(-c5c(C)c(C(=O)c6ccc7c(=O)n(CC(=O)O)c(=O)[nH]c7c6)n6ccccc56)cc4)CC3)cc2)c2ccccn2c1C(=O)c1ccc2c(=O)n(CC(=O)O)c(=O)[nH]c2c1 [Compound 15, 2,2′-{piperazine-1,4-diylbis[propane-3,1-diyloxybenzene-4,1-diyl(2-methylindolizine-1,3-diyl)carbonyl(2,4-dioxo-1,4-dihydroquinazoline-7,3(2H)-diyl)]}diacetic acid]	< 100 nM	24%	
Cc1c(-c2ccc(C(=O)NCCOP(=O)(O)OCCNC(=O)c3ccc(-c4c(C)c(C(=O)c5ccc6c(=O)n(CC(=O)O)c(=O)[nH]c6c5)n5ccccc45)cc3)cc2)c2ccccn2c1C(=O)c1ccc2c(=O)n(CC(=O)O)c(=O)[nH]c2c1 [Compound 16, [7-({1-[4-({9-[4-(3-{[3-(carboxymethyl)-2,4-dioxo-1,4-dihydroquinazolin-7(2H)-yl]carbonyl}-2-methylindolizin-1-yl)phenyl]-4-hydroxy-4-oxido-9-oxo-3,5-dioxa-8-aza-4λ^5-phosphanon-1-yl}carbamoyl)phenyl]-2-methylindolizin-3-yl}carbonyl)-2,4-dioxo-1,4-dihydroquinazolin-3(2H)-yl]acetic acid]	< 1 nM	82%	active
